According to article PMC6928947, “Benzo[b]tellurophenes as a Potential Histone H3 Lysine 9 Demethylase (KDM4) Inhibitor” (International Journal of Molecular Sciences, 2019):

Target: T1, KDM4A (Homo sapiens, UniProt O75164)
T1 sequence (O75164 2-1064): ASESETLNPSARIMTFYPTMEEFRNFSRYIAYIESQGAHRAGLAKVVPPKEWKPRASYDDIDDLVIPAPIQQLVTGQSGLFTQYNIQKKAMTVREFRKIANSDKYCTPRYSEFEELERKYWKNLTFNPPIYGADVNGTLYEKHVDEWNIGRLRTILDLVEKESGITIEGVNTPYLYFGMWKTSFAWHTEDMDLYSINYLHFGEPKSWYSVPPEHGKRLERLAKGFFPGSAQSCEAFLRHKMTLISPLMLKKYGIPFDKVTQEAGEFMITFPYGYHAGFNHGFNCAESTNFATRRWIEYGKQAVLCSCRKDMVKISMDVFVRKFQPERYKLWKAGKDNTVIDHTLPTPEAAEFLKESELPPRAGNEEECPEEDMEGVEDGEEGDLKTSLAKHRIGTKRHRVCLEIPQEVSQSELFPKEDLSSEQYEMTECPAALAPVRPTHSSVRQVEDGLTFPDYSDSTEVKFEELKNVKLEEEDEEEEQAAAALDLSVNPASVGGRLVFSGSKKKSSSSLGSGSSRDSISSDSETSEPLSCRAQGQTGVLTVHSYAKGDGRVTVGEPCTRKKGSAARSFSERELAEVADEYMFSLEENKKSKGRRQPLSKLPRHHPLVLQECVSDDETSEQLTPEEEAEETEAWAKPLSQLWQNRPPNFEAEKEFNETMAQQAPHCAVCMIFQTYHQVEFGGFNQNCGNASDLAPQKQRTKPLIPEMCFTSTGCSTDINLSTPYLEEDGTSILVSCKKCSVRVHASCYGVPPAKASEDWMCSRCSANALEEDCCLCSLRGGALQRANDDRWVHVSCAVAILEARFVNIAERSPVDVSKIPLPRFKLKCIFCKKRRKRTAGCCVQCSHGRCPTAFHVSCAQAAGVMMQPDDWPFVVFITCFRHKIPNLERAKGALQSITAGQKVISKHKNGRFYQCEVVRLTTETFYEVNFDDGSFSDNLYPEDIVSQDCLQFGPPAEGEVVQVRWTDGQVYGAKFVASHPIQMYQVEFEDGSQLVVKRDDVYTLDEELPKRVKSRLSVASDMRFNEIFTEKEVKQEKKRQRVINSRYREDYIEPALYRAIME
Experiment: FDH-coupled demethylase assay, recombinant KDM4A with H3K9me3 peptide (Cayman kit […])
Format: biochemical

SMILES: CC(C)(C)OC(=O)NCc1cc2ccccc2[te]1 [1c, tert-Butyl benzo[b]tellurophen-2-ylmethylcarbamate]
- IC50: 30.2 ± 4.6 µM
